These results are taken from the METLIN SMRT retention time set (Domingo-Almenara et al. 2019).

A short description of this data set: gradient 5% acetonitrile 3 min, to 50% in 2 min, to 85% in 15 min, held 3 min, 100 µL/min. The following applies: column: Zorbax Extend-C18 2.1 x 50 mm; eluents: water / acetonitrile, 0.1% formic acid. In short, it runs like this:
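Using water and acetonitrile that each contained 0.1% formic acid, mixtures of ~100 pure standards were separated at 100 μL/min on a Zorbax Extend-C18 column (2.1 × 50 mm, 1.8 μm). The HPLC fed a quadrupole time-of-flight mass spectrometer working in positive and negative ionization mode, with dead and dwell volumes of 40 μL and 900 μL. Data were acquired over 3 months. Retention time was read from computationally picked adduct peaks after manual inspection of each.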
`CN(CC(=O)N1CCN(c2cccc(Cl)c2)CC1)S(=O)(=O)c1ccc2c(c1)CCCC(=O)N2` came in with an RP-LC retention time of 822 s.
Molecule `Cc1nnc(-c2coc(S(=O)(=O)N3CCC(Cc4ccccc4)CC3)c2)o1` registered an RP-LC retention time of 1010 s.
The molecule `Cc1ccc2nc(NC3=NCN(CCc4cccs4)CN3)nc(C)c2c1` yielded an RP-LC retention time of 746 s.
As for `Cc1ccc(C)c(NC(=O)C2CC(=O)N(CCc3c[nH]c4ccc(F)cc34)C2)c1` (configuration not stated), the figure is 586 s.
`Cc1nc2c(SCC(=O)Nc3ccc4c(c3)OCO4)nnc(-c3ccccc3)c2s1` showed an RP-LC retention time of 847 s.
With `COc1cc(-c2nnc(SCC(=O)N3CCCCC3C)o2)cc(OC)c1OC` (configuration not stated) the figure was 867 s; with `CCc1noc(NC(C)=O)c1-c1ccc(OC)c(S(=O)(=O)NC2CC2)c1`, 679 s.
Consider `COc1nccnc1N1CCC(N(C)C(=O)Cc2ccsc2)C1` (configuration not stated), for which the RP-LC retention time was found to be 719 s.
With `COCCc1noc(C2Cc3ccccc3N2C(=O)Nc2ccc(C)c(C)c2)n1` (configuration not stated) the figure was 1060 s; with `CCc1nc(-c2csc(S(=O)(=O)N3CCCC(C(=O)NCc4ccc(C)cc4)C3)c2)no1` (configuration not stated), 1060 s; with `COc1ccccc1NC(=O)N1CCCC1c1nc(-c2ccccc2OC)no1` (configuration not stated), 894 s.
In the case of `CCc1cccc(NC(=O)Cn2nc(N3CCCC(C)C3)c3ccccc3c2=O)c1` (configuration not stated), the RP-LC retention time was determined as 1240 s.
As for `Cc1ccc(C(=O)NCc2nc(-c3ccc4c(c3)nnn4C3CCCC3)no2)cc1`, the figure is 969 s; as for `CN1CCN(S(=O)(=O)c2ccc(Cl)c(-c3nnc(-c4ccccc4)o3)c2)CC1`, 681 s; as for `COc1cc2c(cc1OC)C1C(C(=O)Nc3ccc4c(c3)OCCO4)c3ccccc3C(=O)N1CC2` (configuration not stated), 772 s.
`Nc1cc(C2CCN(C(=O)Nc3cccc(Br)c3)CC2)no1`: the RP-LC retention time was determined as 744 s.
As for `CCOc1ccccc1-n1ccn(Cc2nc(-c3ccc(OC)cc3)no2)c(=O)c1=O`, the figure is 846 s; as for `CCc1ccc(CNC(=O)C2CCCN(c3nccc(C)n3)C2)cc1` (configuration not stated), 820 s; as for `CNC(=O)c1cc(=O)[nH]c2ccc(F)cc12`, 584 s.
Molecule `CC(NC(=O)c1cn(-c2cc(-c3nc(C4CC4)no3)ccn2)cn1)c1ccccc1` (configuration not stated) showed an RP-LC retention time of 981 s.
Turning to `Cc1oc(-c2ccc(NC(=O)Cc3ccc(F)cc3)cc2)nc1Cn1cccn1`, the RP-LC retention time worked out at 866 s.
With `COC(=O)c1c(NC(=O)N2CCCN(c3nc4cccnc4s3)CC2)sc2c1CCCC2` the figure was 1100 s; with `COc1cc(Cl)ccc1C(=O)N1CCN=C1N1CCN(c2ccccc2F)CC1`, 749 s; with `COc1ccc(-c2noc(C3CCCN3C(=O)Nc3cc(C)ccc3C)n2)cc1` (configuration not stated), 1020 s.
In turn, `Cc1ccc(NC(=O)N2CCC(n3cnc4ccc(C)cc4c3=O)CC2)c(C)c1` yielded an RP-LC retention time of 795 s.
On to `COc1ccccc1CC(=O)N1CCCC1c1c(C)noc1C` (configuration not stated), for which the RP-LC retention time was 753 s.
Molecule `Cn1ccnc1C(=O)N1CC(n2cc(COc3ccc(F)cc3)nn2)C1` registered an RP-LC retention time of 715 s.
As for `COc1ccc(C(=O)Nc2cccc(-c3ccc(S(C)(=O)=O)nn3)c2)cc1OC`, the figure is 681 s; as for `COCC(=O)N(CC(=O)N1CCc2sccc2C1COc1ccc(C)cc1)C(C)C` (configuration not stated), 867 s.
With `CNC(=O)C1CCN(C(=O)Nc2ccc(NC(=O)Nc3ccc(OC)cc3)cc2)CC1` the figure was 638 s; with `Cc1cc(F)ccc1N1C(=O)CN(S(=O)(=O)c2ccccc2)CC1(C)C(=O)NC1CCCC1` (configuration not stated), 928 s.
As for `CC(=O)Nc1ccc(S(=O)(=O)N2CCN(c3cc(C)c4ccccc4n3)CC2)cc1`, the figure is 632 s.
